Results from patent US9511073B2, “Aromatic amides and uses thereof” (TAXIS Pharmaceuticals, Inc., priority 2011, dated 2016).
Converted amounts (≈) assume the structure as drawn.

What follows are compounds tested on Staphylococcus aureus (Isolate ID ATCC 29213) (assay: Bacterial assay: MIC by broth microdilution or agar dilution (CLSI), S. aureus ATCC 29213). Settings: Staphylococcus aureus, ATCC29213, read-out: S. aureus MIC (μg/mL) Activity Range, S. aureus (ATCC29213).
Type: cell-based
Description: Compounds are tested for antimicrobial activity by susceptibility testing in liquid or on solid media. Minimum inhibitory concentrations (MICs) for compounds against each strain are determined by the broth microdilution or agar dilution method according to the guidelines of the Clinical Laboratories and Standards Institute, formerly the National Committee for Clinical Laboratory Standards (Clinical Laboratories and Standards Institute. Methods for Dilution Antimicrobial Susceptibility Tests for Bacteria That Grow Aerobically; Approved Standard—Seventh Edition. Document M7-A7. CLSI, Wayne, Pa., 2006; Clinical Laboratories and Standards Institute). The bacterial strains tested include S. aureus (Staphylococcus aureus (Isolate ID ATCC 29213)) and an FtsZ mutant of this isolate (FtsZ-G196A Staphylococcus aureus (Isolate ID GG/190723/sa/1.2)). Compound MICs were determined to be in the following activity ranges “A” activity≦0.25 μg/mL; “B” activity>0.25 μg/mL-1.0 μg/mL; “C” activity>1.0 μg/mL-16 μg/mL; “D” activity>16 μg/mL and ND=not determined. The bracketed entries indicate entantiomer(s) and their activity.

Going from `CCNC(=O)NCC(Oc1ccc(F)c(C(N)=O)c1F)c1nc(-c2ccc(C(F)(F)F)cc2)co1` (stereo not drawn) [Compound 286, 3-(2-(3-ethylureido)-1-(4-(4-(trifluoromethyl)phenyl)oxazol-2-yl)ethoxy)-2,6-difluorobenzamide] to `CCNC(=O)NCC(Oc1ccc(F)c(C(N)=O)c1F)c1nc(-c2ccc(C(F)(F)F)cc2)c(Br)o1` (stereo not drawn) [Compound 291, 3-(1-(5-bromo-4-(4-(trifluoromethyl)phenyl)oxazol-2-yl)-2-(3-ethylureido)ethoxy)-2,6-difluorobenzamide], the MIC falls from > 16 µg/mL to < 0.25 µg/mL.

Compared with `NC(=O)CC(Oc1ccc(F)c(C(N)=O)c1F)c1nc(-c2ccc(C(F)(F)F)cc2)c(Br)o1` (stereo not drawn) [Compound 96, 3-(3-amino-1-(5-bromo-4-(4-(trifluoromethyl)phenyl)oxazol-2-yl)-3-oxopropoxy)-2,6-difluorobenzamide], `CNC(=O)OCC(Oc1ccc(F)c(C(N)=O)c1F)c1nc(-c2ccc(C(F)(F)F)cc2)c(Br)o1` (stereo not drawn) [Compound 113, 2-(5-bromo-4-(4-(trifluoromethyl)phenyl)oxazol-2-yl)-2-(3-carbamoyl-2,4-difluorophenoxy)ethyl methylcarbamate] is lower in MIC: 1 to 16 µg/mL (≈ 1.87 to 29.9 µM) for the first, 0.25 to 1 µg/mL (≈ 0.443 to 1.77 µM) for the second.

`Cc1cc(CNC(=O)OCC(Oc2ccc(F)c(C(N)=O)c2F)c2nc(-c3ccc(C(F)(F)F)cc3)c(Br)o2)n(C)n1` (stereo not drawn) [Compound 212, 2-(5-bromo-4-(4-(trifluoromethyl)phenyl)oxazol-2-yl)-2-(3-carbamoyl-2,4-difluorophenoxy)ethyl ((1,3-dimethyl-1H-pyrazol-5-yl)methyl)carbamate] and `Cc1ccc(CNC(=O)OCC(Oc2ccc(F)c(C(N)=O)c2F)c2nc(-c3ccc(C(F)(F)F)cc3)c(Br)o2)n1C` (stereo not drawn) [Compound 211, 2-(5-bromo-4-(4-(trifluoromethyl)phenyl)oxazol-2-yl)-2-(3-carbamoyl-2,4-difluorophenoxy)ethyl ((1,5-dimethyl-1H-pyrrol-2-yl)methyl)carbamate] fall in the same range of MIC: 0.25 to 1 µg/mL (≈ 0.38 to 1.52 µM) for the first, 0.25 to 1 µg/mL (≈ 0.38 to 1.52 µM) for the second.

First: CS(=O)(=O)NCC(Oc1ccc(F)c(C(N)=O)c1F)c1nc(-c2ccc(C(F)(F)F)cc2)c(Br)o1 (stereo not drawn) [Compound 285, 3-(1-(5-bromo-4-(4-(trifluoromethyl)phenyl)oxazol-2-yl)-2-(methylsulfonamido)ethoxy)-2,6-difluorobenzamide]
Second: COCC(Oc1ccc(F)c(C(N)=O)c1F)c1nc(-c2ccc(C(F)(F)F)cc2)c(Br)o1 (stereo not drawn) [Compound 103, 3-(1-(5-bromo-4-(4-(trifluoromethyl)phenyl)oxazol-2-yl)-2-methoxyethoxy)-2,6-difluorobenzamide]
The MIC of the first is higher: 1 to 16 µg/mL (≈ 1.71 to 27.4 µM) for the first, 0.25 to 1 µg/mL (≈ 0.48 to 1.92 µM) for the second.

First: Cc1ccc(CNC(=O)OCC(Oc2ccc(F)c(C(N)=O)c2F)c2nc(-c3ccc(C(F)(F)F)cc3)c(Br)o2)cn1 (stereo not drawn) [Compound 214, 2-(5-bromo-4-(4-(trifluoromethyl)phenyl)oxazol-2-yl)-2-(3-carbamoyl-2,4-difluorophenoxy)ethyl ((6-methylpyridin-3-yl)methyl)carbamate]
Second: Cn1cncc1CNC(=O)OCC(Oc1ccc(F)c(C(N)=O)c1F)c1nc(-c2ccc(C(F)(F)F)cc2)c(Br)o1 (stereo not drawn) [Compound 195, 2-(5-bromo-4-(4-(trifluoromethyl)phenyl)oxazol-2-yl)-2-(3-carbamoyl-2,4-difluorophenoxy)ethyl ((1-methyl-1H-imidazol-5-yl)methyl)carbamate]
The MIC of the first is lower: 0.25 to 1 µg/mL (≈ 0.381 to 1.53 µM) for the first, 1 to 16 µg/mL (≈ 1.55 to 24.8 µM) for the second.

`NC(=O)c1c(F)ccc(OC(CC(CO)CO)c2nc(-c3ccc(C(F)(F)F)cc3)c(Br)o2)c1F` (stereo not drawn) [Compound 139, 3-(1-(5-bromo-4-(4-(trifluoromethyl)phenyl)oxazol-2-yl)-4-hydroxy-3-(hydroxymethyl)butoxy)-2,6-difluorobenzamide] and `C=CC(Oc1ccc(F)c(C(N)=O)c1F)c1nc(-c2ccc(C(F)(F)F)cc2)c(Br)o1` (stereo not drawn) [Compound 102, 3-((1-(5-bromo-4-(4-(trifluoromethyl)phenyl)oxazol-2-yl)allyl)oxy)-2,6-difluorobenzamide] fall in the same range of MIC: 1 to 16 µg/mL (≈ 1.77 to 28.3 µM) for the first, 1 to 16 µg/mL (≈ 1.99 to 31.8 µM) for the second.

First: NC(=O)c1c(F)ccc(OC(COC(=O)Nc2nnn[nH]2)c2nc(-c3ccc(C(F)(F)F)cc3)c(Br)o2)c1F (stereo not drawn) [Compound 177, 2-(5-bromo-4-(4-(trifluoromethyl)phenyl)oxazol-2-yl)-2-(3-carbamoyl-2,4-difluorophenoxy)ethyl 1H-tetrazol-5-ylcarbamate]
Second: Cn1ccc(CNC(=O)OCC(Oc2ccc(F)c(C(N)=O)c2F)c2nc(-c3ccc(C(F)(F)F)cc3)c(Br)o2)n1 (stereo not drawn) [Compound 193, 2-(5-bromo-4-(4-(trifluoromethyl)phenyl)oxazol-2-yl)-2-(3-carbamoyl-2,4-difluorophenoxy)ethyl ((1-methyl-1H-pyrazol-3-yl)methyl)carbamate]
The MIC of the first is higher: > 16 µg/mL for the first, < 0.25 µg/mL for the second.

Compared with `C=CCc1oc(C(C)Oc2ccc(F)c(C(N)=O)c2F)nc1-c1ccc(OC(F)(F)F)cc1` (stereo not drawn) [Compound 17, 3-(1-(5-allyl-4-(4-(trifluoromethoxy)phenyl)oxazol-2-yl)ethoxy)-2,6-difluorobenzamide], `C=CCc1oc(C(CO)Oc2ccc(F)c(C(N)=O)c2F)nc1-c1ccc(C(F)(F)F)cc1` (stereo not drawn) [Compound 66, 3-(1-(5-allyl-4-(4-(trifluoromethyl)phenyl)oxazol-2-yl)-2-hydroxyethoxy)-2,6-difluorobenzamide] is higher in MIC: 0.25 to 1 µg/mL (≈ 0.534 to 2.14 µM) for the first, 1 to 16 µg/mL (≈ 2.14 to 34.2 µM) for the second.

Compared with `CCCC(Oc1ccc(F)c(C(N)=O)c1F)c1nc(-c2ccc(Cl)cc2)c(Br)o1` (stereo not drawn) [Compound 23], `NC(=O)c1c(F)ccc(OC(CO)c2nc(-c3ccc(Cl)cc3)c(Cl)o2)c1F` (stereo not drawn) [Compound 47, 3-(1-(5-chloro-4-(4-chlorophenyl)oxazol-2-yl)-2-hydroxyethoxy)-2,6-difluorobenzamide] is lower in MIC: 1 to 16 µg/mL (≈ 2.06 to 32.9 µM) for the first, 0.25 to 1 µg/mL (≈ 0.582 to 2.33 µM) for the second.

`COc1ccc(CCc2csc(C(CO)Oc3ccc(F)c(C(N)=O)c3F)n2)cc1` (stereo not drawn) [Compound 262, 2,6-difluoro-3-(2-hydroxy-1-(4-(4-methoxyphenethyl)thiazol-2-yl)ethoxy)benzamide] and `COc1ccc(-c2nc(C(CO)Oc3ccc(F)c(C(N)=O)c3F)oc2Br)cc1` (stereo not drawn) [Compound 112, 3-(1-(5-bromo-4-(4-methoxyphenyl)oxazol-2-yl)-2-hydroxyethoxy)-2,6-difluorobenzamide] fall in the same range of MIC: 1 to 16 µg/mL (≈ 2.3 to 36.8 µM) for the first, 1 to 16 µg/mL (≈ 2.13 to 34.1 µM) for the second.

Compared with `CCOC(=O)C(CC(Oc1ccc(F)c(C(N)=O)c1F)c1nc(-c2ccc(C(F)(F)F)cc2)c(Br)o1)C(=O)OCC` (stereo not drawn) [Compound 119, diethyl 2-(2-(5-bromo-4-(4-(trifluoromethyl)phenyl)oxazol-2-yl)-2-(3-carbamoyl-2,4-difluorophenoxy)ethyl)malonate], `CCOC(=O)CNC(=O)OCC(Oc1ccc(F)c(C(N)=O)c1F)c1nc(-c2ccc(C(F)(F)F)cc2)c(Br)o1` (stereo not drawn) [Compound 140, ethyl 2-(((2-(5-bromo-4-(4-(trifluoromethyl)phenyl)oxazol-2-yl)-2-(3-carbamoyl-2,4-difluorophenoxy)ethoxy)carbonyl)amino)acetate] is lower in MIC: > 16 µg/mL for the first, 0.25 to 1 µg/mL (≈ 0.393 to 1.57 µM) for the second.

`NC(=O)c1c(F)ccc(OC(CO)c2nc(-c3ccccc3F)co2)c1F` (stereo not drawn) [Compound 223, 2,6-difluoro-3-(1-(4-(2-fluorophenyl)oxazol-2-yl)-2-hydroxyethoxy)benzamide] and `COc1cc(Cl)ccc1-c1coc(C(CO)Oc2ccc(F)c(C(N)=O)c2F)n1` (stereo not drawn) [Compound 227, 3-(1-(4-(4-chloro-2-methoxyphenyl)oxazol-2-yl)-2-hydroxyethoxy)-2,6-difluorobenzamide] cannot be ordered by MIC: > 16 µg/mL for the first, > 16 µg/mL for the second.

First: CC(Oc1ccc(F)c(C(N)=O)c1F)c1nc(-c2ccc(Cl)cc2)ns1 (stereo not drawn) [Compound 33, 3-(1-(3-(4-chlorophenyl)-1,2,4-thiadiazol-5-yl)ethoxy)-2,6-difluorobenzamide]
Second: CN(C)C(=O)C(Oc1ccc(F)c(C(N)=O)c1F)c1nc(-c2ccc(Cl)cc2)cs1 (stereo not drawn) [Compound 31, 3-(1-(4-(4-chlorophenyl)thiazol-2-yl)-2-(dimethylamino)-2-oxoethoxy)-2,6-difluorobenzamide]
The MIC of the first is lower: < 0.25 µg/mL for the first, 1 to 16 µg/mL (≈ 2.21 to 35.4 µM) for the second.

First: COc1cccc(-c2nc(C(CO)Oc3ccc(F)c(C(N)=O)c3F)oc2Br)c1 (stereo not drawn) [Compound 117, 3-(1-(5-bromo-4-(3-methoxyphenyl)oxazol-2-yl)-2-hydroxyethoxy)-2,6-difluorobenzamide]
Second: NC(=O)c1c(F)ccc(O[C@H](CO)c2nc(-c3ccc4occc4c3)c(Br)o2)c1F [Compound 254B, (R)-3-(1-(4-(benzofuran-5-yl)-5-bromooxazol-2-yl)-2-hydroxyethoxy)-2,6-difluorobenzamide]
The MIC of the first is higher: > 16 µg/mL for the first, 1 to 16 µg/mL (≈ 2.09 to 33.4 µM) for the second.

`CC(Oc1ccc(F)c(C(N)=O)c1F)c1nc(-c2cnc(C(F)(F)F)nc2)c(Cl)o1` (stereo not drawn) [Compound 55] and `CC(Oc1ccc(F)c(C(N)=O)c1F)c1nc(-c2ccc(C(F)(F)F)nc2)c(Cl)o1` (stereo not drawn) [Compound 50] fall in the same range of MIC: 1 to 16 µg/mL (≈ 2.23 to 35.7 µM) for the first, 1 to 16 µg/mL (≈ 2.23 to 35.7 µM) for the second.

`NC(=O)c1c(F)ccc(OC(CO)c2coc(-c3ccc(C(F)(F)F)cc3)n2)c1F` (stereo not drawn) [Compound 136, 2,6-difluoro-3-(2-hydroxy-1-(2-(4-(trifluoromethyl)phenyl)oxazol-4-yl)ethoxy)benzamide] and `NC(=O)c1c(F)ccc(OC(COC(=O)NCCc2c[nH]cn2)c2nc(-c3ccc(C(F)(F)F)cc3)c(Br)o2)c1F` (stereo not drawn) [Compound 162, 2-(5-bromo-4-(4-(trifluoromethyl)phenyl)oxazol-2-yl)-2-(3-carbamoyl-2,4-difluorophenoxy)ethyl (2-(1H-imidazol-4-yl)ethyl)carbamate] fall in the same range of MIC: 1 to 16 µg/mL (≈ 2.33 to 37.4 µM) for the first, 1 to 16 µg/mL (≈ 1.55 to 24.8 µM) for the second.

In the case of `CCOC(=O)C(Oc1ccc(F)c(C(N)=O)c1F)c1nc(C2CCOCC2)co1` (stereo not drawn) [Compound 180, ethyl 2-(3-carbamoyl-2,4-difluorophenoxy)-2-(4-(tetrahydro-2H-pyran-4-yl)oxazol-2-yl)acetate], the MIC is reported as > 16 µg/mL.
